{"source": "patent US20240173293A1", "about": "(Sanofi, priority 2021, published 2024)", "key": {"[1]": {"experiment": "Amcenestrant PK parameters at steady state in patients", "type": "in vivo, human", "conditions": "for AUC(0-t) / Cmax / Tmax / concentration at 0 h: human, plasma, oral; for Tmax: read-out: Tmax (median); for concentration at 0 h: read-out: Ctrough (arithmetic mean)"}, "[2]": {"experiment": "Published palbociclib exposure data (A5481001, A5481003, A5481008, Ibrance label)", "type": "in vivo", "conditions": "human, plasma; A5481001, A5481003, A5481008, N=57; read-out: AUC0-24 h, reference: geometric mean of individual studies weighed by number of subjects (converted)"}, "[3]": {"conditions": "cited from earlier work"}, "[4]": {"conditions": "cited from earlier work", "remark": "listed apart in the source"}, "[5]": {"conditions": "pooled analysis, 1666 patients treated with palbociclib; cited from earlier work"}, "[6]": {"conditions": "amcenestrant 200 mg with palbociclib, steady state Day 21, N=8"}, "[7]": {"conditions": "amcenestrant 400 mg monotherapy, steady state, N=13"}, "[8]": {"conditions": "amcenestrant 400 mg with palbociclib, steady state Day 21, N=5"}}, "note": "Read-outs that look alike come from different tables or passages of the source."}
{"smiles": "O=C(O)c1ccc2c(c1)CCCC(c1ccc(Cl)cc1Cl)=C2c1ccc(O[C@H]2CCN(CCCF)C2)cc1", "note": "[Amcenestrant, 6-(2,4-dichlorophenyl)-5-[4-[(3S)-1-(3-fluoropropyl)pyrrolidin-3-yl]oxyphenyl]-8,9-dihydro-7H-benzo[7]annulene-2-carboxylic acid]", "values": [{"measurement": "CLss/F (arithmetic mean)", "setting": "[1]; [6]", "value": 10.7, "unit": "L/h"}, {"measurement": "Ctrough [geometric mean]", "setting": "[1]; [6]", "value": "[215] ng/mL"}, {"measurement": "CLss/F (arithmetic mean)", "setting": "[1]; amcenestrant 200 mg with palbociclib, steady state Day 21, N=8, listed as amcenestrant", "value": "10.7 ± 3.38", "unit": "L/h"}, {"measurement": "CLss/F (arithmetic mean)", "setting": "[1]; [7]", "value": 10.6, "unit": "L/h"}, {"measurement": "Ctrough [geometric mean]", "setting": "[1]; [7]", "value": "[466] ng/mL"}, {"measurement": "CLss/F (arithmetic mean)", "setting": "[1]; amcenestrant 400 mg monotherapy, steady state, N=13, listed as amcenestrant", "value": "10.6 ± 4.35", "unit": "L/h"}, {"measurement": "systemic clearance higher than after amcenestrant 400 mg QD single agent", "setting": "[1]; amcenestrant 400 mg with palbociclib, Day 21", "value": 28, "unit": "%"}, {"measurement": "CLss/F (arithmetic mean)", "setting": "[1]; [8]", "value": 13.5, "unit": "L/h"}, {"measurement": "Ctrough [geometric mean]", "setting": "[1]; [8]", "value": "[248] ng/mL"}, {"measurement": "CLss/F (arithmetic mean)", "setting": "[1]; amcenestrant 400 mg with palbociclib, steady state Day 21, N=5, listed as amcenestrant", "value": "13.5 ± 5.36", "unit": "L/h"}, {"measurement": "AUC(0-t)", "setting": "[1]; female, 200 mg, amcenestrant 200 mg with palbociclib, steady state Day 21, N=8, read-out: AUC0-24h (arithmetic mean) (converted)", "value": 20600, "unit": "ng·h/mL"}, {"measurement": "Cmax", "setting": "[1]; female, 200 mg, amcenestrant 200 mg with palbociclib, steady state Day 21, N=8, read-out: Cmax (arithmetic mean)", "value": 2060, "unit": "ng/mL"}, {"measurement": "Tmax", "setting": "[1]; female, 200 mg", "value": 4.88, "unit": "h"}, {"measurement": "AUC(0-t)", "setting": "[1]; female, 400 mg, amcenestrant 400 mg with palbociclib, steady state Day 21, N=5, read-out: AUC0-24h (arithmetic mean) (converted)", "value": 33100, "unit": "ng·h/mL"}, {"measurement": "AUC(0-t)", "setting": "[1]; female, 400 mg, amcenestrant 400 mg with palbociclib, steady state Day 21, N=5, read-out: AUC0-24h [geometric mean]", "value": 31400, "unit": "ng·h/mL"}, {"measurement": "Cmax", "setting": "[1]; female, 400 mg, amcenestrant 400 mg with palbociclib, steady state Day 21, N=5, read-out: Cmax (arithmetic mean)", "value": 4350, "unit": "ng/mL"}, {"measurement": "Cmax", "setting": "[1]; female, 400 mg, amcenestrant 400 mg with palbociclib, steady state Day 21, N=5, read-out: Cmax [geometric mean]", "value": 3450, "unit": "ng/mL"}, {"measurement": "Tmax", "setting": "[1]; female, 400 mg", "value": 4, "unit": "h"}, {"measurement": "concentration at 0 h", "setting": "[1]; female, amcenestrant 200 mg with palbociclib, steady state Day 21, N=8", "value": 226, "unit": "ng/mL"}, {"measurement": "concentration at 0 h", "setting": "[1]; female, amcenestrant 400 mg with palbociclib, steady state Day 21, N=5", "value": 280, "unit": "ng/mL"}, {"measurement": "AUC(0-t)", "setting": "[1]; 200 mg, amcenestrant 200 mg with palbociclib, steady state Day 21, N=8, read-out: AUC0-24h [geometric mean]", "value": 19500, "unit": "ng·h/mL"}, {"measurement": "Cmax", "setting": "[1]; 200 mg, amcenestrant 200 mg with palbociclib, steady state Day 21, N=8, read-out: Cmax [geometric mean]", "value": 1940, "unit": "ng/mL"}, {"measurement": "AUC(0-t)", "setting": "[1]; 400 mg, amcenestrant 400 mg monotherapy, steady state, N=13, read-out: AUC0-24h (arithmetic mean) (converted)", "value": 43200, "unit": "ng·h/mL"}, {"measurement": "AUC(0-t)", "setting": "[1]; 400 mg, amcenestrant 400 mg monotherapy, steady state, N=13, read-out: AUC0-24h [geometric mean]", "value": 40400, "unit": "ng·h/mL"}, {"measurement": "Cmax", "setting": "[1]; 400 mg, amcenestrant 400 mg monotherapy, steady state, N=13, read-out: Cmax (arithmetic mean)", "value": 4380, "unit": "ng/mL"}, {"measurement": "Cmax", "setting": "[1]; 400 mg, amcenestrant 400 mg monotherapy, steady state, N=13, read-out: Cmax [geometric mean]", "value": 4220, "unit": "ng/mL"}, {"measurement": "concentration at 0 h", "setting": "[1]; 400 mg, amcenestrant 400 mg monotherapy, steady state, N=13", "value": 630, "unit": "ng/mL"}, {"measurement": "Tmax", "setting": "[1]; 400 mg", "value": 3, "unit": "h"}]}
{"smiles": "CC(=O)c1c(C)c2cnc(Nc3ccc(N4CCNCC4)cn3)nc2n(C2CCCC2)c1=O", "note": "[Palbociclib, 6-acetyl-8-cyclopentyl-5-methyl-2-{[5-(piperazin-1-yl)pyridin-2-yl]amino}pyrido[2,3-d]pyrimidin-7(8H)-one]", "values": [{"measurement": "AUC(0-t)", "setting": "[2]", "value": 1970, "unit": "ng·h/mL"}, {"measurement": "decrease of exposure when combined with a moderate CYP3A inducer (modafinil)", "setting": "[3]; Ibrance U.S. label", "value": 32, "unit": "%"}, {"measurement": "Cmax, arithmetic mean (CV %)", "setting": "[3]; study A5481001, palbociclib monotherapy, steady state, N=4", "value": "97.4 (41%) ng/mL"}, {"measurement": "Cmax, geometric mean (CV %)", "setting": "[3]; study A5481003, palbociclib monotherapy, steady state, N=12", "value": "116 (28%) ng/mL"}, {"measurement": "Cmax, geometric mean (CV %)", "setting": "[3]; study A5481008, palbociclib with letrozole, steady state, N=41", "value": "110 (35%) ng/mL"}, {"measurement": "solubility", "setting": "[4]; Above pH 4", "value": "reduces significantly"}, {"measurement": "solubility", "setting": "[4]; At or below pH 4", "value": "high-solubility compound"}, {"measurement": "neutrophil count decrease, any grade", "setting": "[5]", "value": 95.2, "unit": "%"}]}
